# Columns and labels:
# Format in all cases: in vivo
# [1] = tested on: resistant strain red mite (Panonychus citri); experiment: Miticidal activity against adults of red mite (resistant strain), leaf disk spray test; conditions: spray 2 mg/cm^2 on cinnamon leaf disks, female adults, two days after treatment; for Mortality (%): 6.25 ppm
# Description: Miticidal Activity Against Adults of Red Mite (Resistant Strain) (Leaf Disk Spray Test)
# 0.5 mass % of agar was blended to water and put into a plastic cup having a capacity of 60 mL, and two cinnamon leaf disks were put thereon and ten female adults of resistant strain red mite (Panonychus citri) were inoculated and left to stand overnight at a constant temperature chamber at 25° C. (photoperiod conditions: light period of 16 hours/dark period of 8 hours). […] Upon expiration of two days after the treatment, the number of dead mites was counted, and the mortality was calculated by the formula 1. The test was carried out twice.
# [2] = tested on: susceptible strain two-spotted spider mite (Tetranychus urticae); experiment: Penetration/transfer activity against two-spotted spider mite (susceptible strain), soil irrigation cup test; conditions: 0.0031 mg a.i./seedling, soil drench 5 mL/seedling, soybean, live mites counted after 13 days
# Description: Penetration/Transfer Activity Against Two-Spotted Spider Mite (Susceptible Strain) (Soil Irrigation Cup Test)
# To soybean (Glycine max) planted in a plastic cup, 35 female adults of susceptible strain two-spotted spider mite (Tetranychus urticae) were inoculated and left to stand overnight at a constant temperature chamber at 25° C. (photoperiod conditions: light period of 16 hours/dark period of 8 hours). A test pesticide prepared by diluting the test compound formulated in accordance with Formulation Example 2 to a predetermined concentration as disclosed in Table 4, was applied by soil drench treatment (5 mL/seedling). Upon expiration of 13 days, the number of live mites was counted, and the preventive value was calculated by the formula 2. The test was carried out twice.
# [3] = tested on: resistant strain two-spotted spider mite (Tetranychus urticae); experiment: Miticidal activity against adults of two-spotted spider mite (resistant strain), leaf disk spray test; conditions: spray 2 mg/cm^2 on kidney bean leaf disks, female adults, two days after treatment; for Mortality (%): 100 ppm
# Description: Miticidal Activity Against Adults of Two-Spotted Spider Mite (Resistant Strain) (Leaf Disk Spray Test)
# (§1) A plastic cup having a capacity of 60 mL was half-filled with water, and a perforated cover was put thereon. Absorbent cotton was impregnated with water through the perforations, and two sheets of filter paper were overlaid thereon. Two leaves of kidney beans (Phaseolus vulgaris) cutout in a circular shape with a diameter of 2 cm, were put thereon, and ten female adults of resistant strain two-spotted spider mite (Tetranychus urticae) were inoculated and left to stand overnight in a constant temperature chamber at 25° C. (photoperiod conditions: light period of 16 hours/dark period of 8 hours). After removing abnormal mites and dead mites, a pesticide prepared by diluting the test compound formulated in accordance with Formulation Example 2 with a diluent such as water, as shown in Table 2 was sprayed by an automatic spraying device (2 mg/cm^2). Upon expiration of two days after the treatment, the number of dead mites was counted, and the mortality was calculated by the formula 1. The test was carried out twice.
# [4] = tested on: susceptible strain two-spotted spider mite (Tetranychus urticae); experiment: Miticidal activity against adults of two-spotted spider mite (susceptible strain), leaf disk spray test; conditions: foliar, 48 h, spray 2 mg/cm^2 on kidney bean leaf disks, female adults, two days after treatment
# Description: Miticidal Activity Against Adults of Two-Spotted Spider Mite (Susceptible Strain) (Leaf Disk Spray Test)
# as §1, with “of 2,” for “of 2”, “of susceptible” for “of resistant”, “hours). […]” for “hours). After removing abnormal mites and dead mites, a pesticide prepared by diluting the test compound formulated in accordance with Formulation Example 2 with a diluent such as water, as shown in Table 2 was sprayed by an automatic spraying device (2 mg/cm^2).”
Structure (SMILES),Mortality (%) [1] [%],Preventive value (%) [2] [%],Mortality (%) [3] [%],mortality at 6.25 ppm ([4]; 6.25 ppm) [%],"mortality at 6.25 ppm ([1]; Panonychus citri, foliar, 48 h) [%]","mortality at 100 ppm ([3]; Tetranychus urticae, foliar, 48 h) [%]",mortality at 3.125 ppm [4] [%]
"Cc1cc(F)c(-n2nc(C(F)(F)F)nc2N)cc1[S+]([O-])CC(F)(F)F (single isomer, unassigned; (-)) [Compound No. III, (−)-1-[2-fluoro-4-methyl-5-(2,2,2-trifluoroethylsulfinyl)phenyl]-5-amino-3-(trifluoromethyl)-1H-1,2,4-triazole]",0,0,0,0,,,
"Cc1cc(F)c(-n2nc(C(F)(F)F)nc2N)cc1[S+]([O-])CC(F)(F)F (racemic) [Compound No. II, 1-[2-fluoro-4-methyl-5-(2,2,2-trifluoroethylsulfinyl)phenyl]-5-amino-3-(trifluoromethyl)-1H-1,2,4-triazole, reference compound]",,0,,,36,16,8
"Cc1cc(F)c(-n2nc(C(F)(F)F)nc2N)cc1[S+]([O-])CC(F)(F)F (single isomer, unassigned; (+)) [Compound No. I, (+)-1-[2-fluoro-4-methyl-5-(2,2,2-trifluoroethylsulfinyl)phenyl]-5-amino-3-(trifluoromethyl)-1H-1,2,4-triazole]",93,100,94,,,,79
